According to patent publication US11716974B2, “Human liver chimeric mouse with deficient P450 oxidoreductase” (Baylor College of Medicine, priority 2016, dated 2023):

Key:
[1] = Liver enzymes after gefitinib; settings: mouse, in vivo
[2] = Gefitinib metabolites M4 and M28 in feces of humanized (Hu-PIRF) and control mice (mass spectrometry); assay type: in vivo, human liver chimeric mouse
Experimental: Feces samples were weighted and homogenized in water (100 mg feces in 1,000 μl of H2O). Subsequently, 300 μl of methanol was added to 100 μl of the resulting mixture, followed by centrifugation at 15,000 g for 20 min. The supernatant was transferred to a new Eppendorf vial for a second centrifugation (15,000 g for 20 min). The final concentration of agomelatine is 2 μM. Each supernatant was transferred to an auto sampler vial for analysis (described below).
The column temperature was maintained at 40° C. The flow rate of was 0.3 mL/min with a gradient ranging from 2% to 98% aqueous acetonitrile containing 0.1% formic acid in a 15-min run. Quadrupole time of flight mass spectrometry (QTOFMS) was operated in positive mode with electrospray ionization. Ultra-highly pure nitrogen was applied as the drying gas (12 L/min) and the collision gas. The drying gas temperature was set at 325° C. and nebulizer pressure was kept at 35 psi. The capillary voltages were set at 3.5 kV. During mass spectrometry, real time mass correction and accurate mass were achieved by continuously measuring standard reference ions at m/z 121.0508, 922.0098 in the positive mode. Mass chromatograms and mass spectra were acquired by MassHunter Workstation data Acquisition software (Agilent, Santa Clara, Calif.) in centroid and profile formats from m/z 50 to 1000. The acquisition rate was set as 1.5 spectra per second. […] Meanwhile, the quality control samples were performed every 10 samples in the process of the sample running. Due to the authentic compounds of metabolites not available, the metabolite identification was based on their exact mass and MS/MS fragments. The chromatograms and relative abundance of metabolite were performed on Qualitative Analysis software (Agilent, Santa Clara, Calif.). The relative abundance was evaluated based on integrated peak area of each metabolite.

[3] = Troglitazone phase II metabolites in livers of humanized and non-humanized mice with and without Por and Ugdh deletion; assay type: in vivo, mouse; settings: liver
Experimental: Percentage of liver glucuronidated and sulfated metabolites detected in humanized livers 2 hours after i.p injection of troglitazone (600 mg/kg). FIG. 25A. Humanized FRG mice. FIG. 25B. Humanized FRG mice after murine Por and Ugdh deletion. FIG. 25C. Non-humanized FRG mice. FIG. 25D. Non-humanized FRG mice with Por and Ugdh genes deleted. Sulfate metabolites of troglitazone in red and glucuronide conjugates in blue.
Troglitazone metabolites (two hours after i.p. injection of 600 mg/kg troglitazone) in the livers of humanized and non-humanized FRG mice with and without Por and Ugdh deletion was analyzed.

level of metabolite M4 in feces ([2]; murine Por-deficient Hu-PIRF mice versus Por-expressing humanized and non-humanized control mice)	level of human-specific metabolite M28 in feces ([2]; murine Por-deficient Hu-PIRF mice versus control groups)	glucuronide conjugates in non-humanized livers of control mice versus humans or humanized mice ([3]; two hours after i.p. injection of 600 mg/kg)	glucuronide conjugates upon deletion of ugdh and por ([3]; non-humanized and humanized mice, two hours after i.p. 600 mg/kg)	Structure (SMILES)	elevation of liver enzymes [1]
highest level	highest level			COc1cc2ncnc(Nc3ccc(F)c(Cl)c3)c2cc1OCCCN1CCOCC1 [gefitinib]	did not cause any elevation of liver enzymes
		much higher amounts	reduced significantly	Cc1c(C)c2c(c(C)c1O)CCC(C)(COc1ccc(CC3SC(=O)NC3=O)cc1)O2 (centres unmarked) [troglitazone]	
